“And” between values parts separate entries of the source, which are not always exact repeats. Identical values can stand only once. Inconclusive results and toxic doses are left out. Cut-off read from the data, not from the text of the source: active = T/C of 150% or more; inactive = T/C below 125%.
Tested on: L1210 leukemia ip in BDF1 mice, survival T/C
Test: NCI In Vivo Anticancer Drug Screen. Data for tumor model L1210 Leukemia (intraperitoneal) in B6D2F1 (BDF1) mice
Details: endpoint: mean survival time, higher = longer survival
In short: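 Survival endpoint. Drug-treated group vs vehicle group, expressed as T divided by C. Tumor passaged by transplantation.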

[1] = dose: 50.0 mg/kg/injection, schedule: Q01DX009 (ip), vehicle: carboxymethylcellulose (CMC)
[2] = dose: 50.0 mg/kg/injection, schedule: Q04DX003 (ip), vehicle: carboxymethylcellulose (CMC)
[3] = dose: 100.0 mg/kg/injection, schedule: Q01DX009 (ip), vehicle: carboxymethylcellulose (CMC)
[4] = dose: 100.0 mg/kg/injection, schedule: Q04DX002 (ip), vehicle: carboxymethylcellulose (CMC)
[5] = dose: 100.0 mg/kg/injection, schedule: Q04DX003 (ip), vehicle: carboxymethylcellulose (CMC)
[6] = dose: 200.0 mg/kg/injection, schedule: Q01DX009 (ip), vehicle: carboxymethylcellulose (CMC)
[7] = dose: 200.0 mg/kg/injection, schedule: Q04DX002 (ip), vehicle: carboxymethylcellulose (CMC)
[8] = dose: 200.0 mg/kg/injection, schedule: Q04DX003 (ip), vehicle: carboxymethylcellulose (CMC)
[9] = dose: 400.0 mg/kg/injection, schedule: Q04DX002 (ip), vehicle: carboxymethylcellulose (CMC)
[10] = dose: 100.0 mg/kg/injection, schedule: Q01DX001 (ip), vehicle: carboxymethylcellulose (CMC)
[11] = dose: 200.0 mg/kg/injection, schedule: Q01DX001 (ip), vehicle: carboxymethylcellulose (CMC)
[12] = dose: 400.0 mg/kg/injection, schedule: Q01DX001 (ip), vehicle: carboxymethylcellulose (CMC)
[13] = dose: 100.0 mg/kg/injection, schedule: Q04DX003 (ip), vehicle: saline with Tween-80
[14] = dose: 200.0 mg/kg/injection, schedule: Q04DX003 (ip), vehicle: saline with Tween-80
[15] = dose: 400.0 mg/kg/injection, schedule: Q04DX003 (ip), vehicle: saline with Tween-80
[16] = dose: 100.0 mg/kg/injection, schedule: Q01DX001 (ip), vehicle: saline
[17] = dose: 200.0 mg/kg/injection, schedule: Q01DX001 (ip), vehicle: saline
[18] = dose: 100.0 mg/kg/injection, schedule: Q04DX003 (ip), vehicle: Klucel (hydroxypropylcellulose) (HPC)
[19] = dose: 200.0 mg/kg/injection, schedule: Q04DX003 (ip), vehicle: Klucel (hydroxypropylcellulose) (HPC)
[20] = dose: 400.0 mg/kg/injection, schedule: Q04DX003 (ip), vehicle: Klucel (hydroxypropylcellulose) (HPC)
[21] = dose: 50.0 mg/kg/injection, schedule: Q01DX001 (ip), vehicle: carboxymethylcellulose (CMC)
[22] = dose: 100.0 mg/kg/injection, schedule: Q01DX009 (ip), vehicle: Klucel (hydroxypropylcellulose) (HPC)
[23] = dose: 200.0 mg/kg/injection, schedule: Q01DX009 (ip), vehicle: Klucel (hydroxypropylcellulose) (HPC)
[24] = dose: 400.0 mg/kg/injection, schedule: Q01DX009 (ip), vehicle: Klucel (hydroxypropylcellulose) (HPC)
[25] = dose: 50.0 mg/kg/injection, schedule: Q01DX001 (ip), vehicle: saline
[26] = dose: 100.0 mg/kg/injection, schedule: Q01DX009 (ip), vehicle: saline with Tween-80
[27] = dose: 200.0 mg/kg/injection, schedule: Q01DX009 (ip), vehicle: saline with Tween-80
[28] = dose: 75.0 mg/kg/injection, schedule: Q01DX001 (ip), vehicle: saline
[29] = dose: 150.0 mg/kg/injection, schedule: Q01DX001 (ip), vehicle: saline
[30] = dose: 300.0 mg/kg/injection, schedule: Q01DX001 (ip), vehicle: saline

Measured: T/C

CCOc1ccccc1/C=C1\C=Nc2ccccc21
inactive: [1] 92 % of control and 101 % of control | [2] 96 % of control | [3] 92 % of control and 93 % of control | [4] 96 % of control and 99 % of control | [5] 98 % of control | [6] 89 % of control and 90 % of control | [7] 89 % of control and 91 % of control | [8] 100 % of control | [9] 89 % of control

NC(=O)c1ccc(F)cc1
inactive: [10] 95 % of control | [11] 104 % of control | [12] 98 % of control

Cc1[nH]c(=O)[nH]c(=O)c1CN1CCOCC1
inactive: [13] 102 % of control | [14] 113 % of control | [15] 100 % of control

C1=C(N2CCOCC2)CCCCC1
inactive: dose: 100.0 mg/kg/injection, schedule: Q01DX009 (ip), vehicle: saline 108 % of control | dose: 200.0 mg/kg/injection, schedule: Q01DX009 (ip), vehicle: saline 109 % of control | dose: 400.0 mg/kg/injection, schedule: Q01DX009 (ip), vehicle: saline 108 % of control

Clc1ccc(/C=N\Nc2c3ccccc3nc3ccccc23)cc1Cl
inactive: [16] 97 % of control | [17] 94 % of control | dose: 400.0 mg/kg/injection, schedule: Q01DX001 (ip), vehicle: saline 111 % of control

O=C(O)CSCc1cccc2ccccc12
inactive: [10] 91 % of control | [18] 98 % of control | [11] 93 % of control | [19] 94 % of control | [12] 91 % of control | [20] 105 % of control

COc1ccc(CC(C)N)cc1OC (centres undefined)
inactive: dose: 100.0 mg/kg/injection, schedule: Q04DX002 (ip), vehicle: saline 105 % of control | dose: 200.0 mg/kg/injection, schedule: Q04DX002 (ip), vehicle: saline 102 % of control

O=C1/C(=C\c2ccc(Cl)c(Cl)c2)N2CCC1CC2
inactive: dose: 100.0 mg/kg/injection, schedule: Q04DX002 (ip), vehicle: Klucel (hydroxypropylcellulose) (HPC) 96 % of control | dose: 200.0 mg/kg/injection, schedule: Q04DX002 (ip), vehicle: Klucel (hydroxypropylcellulose) (HPC) 104 % of control | dose: 400.0 mg/kg/injection, schedule: Q04DX002 (ip), vehicle: Klucel (hydroxypropylcellulose) (HPC) 114 % of control

CCCCCCCC(=O)NCCCCC
inactive: [21] 98 % of control | [1] 97 % of control and 113 % of control | [2] 103 % of control | [10] 105 % of control | [3] 108 % of control | [4] 94 % of control | [5] 96 % of control | [11] 100 % of control | [6] 104 % of control and 90 % of control | [7] 96 % of control | [8] 98 % of control | [9] 96 % of control

Nc1ncc(C(=O)O)s1
inactive: [22] 98 % of control | [23] 103 % of control | [24] 87 % of control

[O-][n+]1ccccc1CCl
inactive: [25] 98 % of control | [16] 100 % of control

CCOP(N)(=O)SC (centres undefined)
inactive: dose: 5.0 mg/kg/injection, schedule: Q01DX001 (ip), vehicle: saline 101 % of control

CC(=O)OCCC/C(=C\c1ccc(Br)cc1)[N+](=O)[O-]
inactive: [10] 97 % of control | [11] 97 % of control

COC(=O)C12CCC(=O)CC1(O)c1ccc(OC)cc1CC2 (centres undefined)
inactive: dose: 100.0 mg/kg/injection, schedule: Q01DX001 (ip), vehicle: Klucel (hydroxypropylcellulose) (HPC) 104 % of control | dose: 200.0 mg/kg/injection, schedule: Q01DX001 (ip), vehicle: Klucel (hydroxypropylcellulose) (HPC) 107 % of control | dose: 400.0 mg/kg/injection, schedule: Q01DX001 (ip), vehicle: Klucel (hydroxypropylcellulose) (HPC) 107 % of control

CCOC(=O)CNC(=O)OCCOc1ccc(-c2ccccc2)cc1
inactive: [26] 98 % of control | [27] 97 % of control | dose: 400.0 mg/kg/injection, schedule: Q01DX009 (ip), vehicle: saline with Tween-80 95 % of control

c1ccc(-c2cnc[nH]2)cc1
inactive: [21] 100 % of control | [10] 109 % of control | [11] 117 % of control

CNC(=S)N/N=C1/C(=N\NC(=S)NC)C(=O)OC1C(O)CO (centres undefined)
inactive: dose: 100.0 mg/kg/injection, schedule: Q01DX001 (ip), vehicle: other 93 % of control | [26] 98 % of control | [13] 100 % of control | dose: 200.0 mg/kg/injection, schedule: Q01DX001 (ip), vehicle: other 95 % of control | [27] 112 % of control | [14] 89 % of control | dose: 400.0 mg/kg/injection, schedule: Q01DX001 (ip), vehicle: other 90 % of control | [15] 91 % of control

c1ccc2c(c1)ccn1cnnc21
inactive: [25] 97 % of control | [16] 101 % of control | [17] 109 % of control

COc1ccc(C=NC2C(OC(C)=O)OC(COS(=O)(=O)c3ccc(C)cc3)C(OC(C)=O)C2OC(C)=O)cc1 (centres undefined)
inactive: [13] 101 % of control | [14] 101 % of control | [15] 93 % of control

CCCC(=O)c1ccc(OC)c(OC)c1
inactive: [22] 101 % of control | [23] 95 % of control

CC(=O)CC(=O)Nc1cccc(C)c1C
inactive: [22] 95 % of control | [18] 97 % of control | [23] 88 % of control | [19] 106 % of control | [24] 88 % of control | [20] 105 % of control

C[N+]1(C)CCNC(=O)CC1
inactive: [28] 105 % of control | [29] 94 % of control | [30] 105 % of control

Cc1ccc(S(=O)(=O)NNC(=O)c2ccc(-c3ccc[nH]3)[nH]2)cc1
inactive: [28] 93 % of control | [29] 92 % of control | [30] 98 % of control

Source: PubChem BioAssay AID248 (DTP/NCI, 2004)
